# Assay results reported in patent US20230124862A1, “BISMUTH THIOL COMPOUNDS AND COMPOSITIONS AND METHODS OF TREATING MICROBIAL CO-INFECTIONS” (Microbion Corporation, priority 2020, published 2023).
# Where two headings read alike, the source gives them in different places.
# Assays:
# in vivo [1] = experiment: in vivo; design: species or system rat; conditions: for half-life / concentration at 24 hours / Kp: in vivo
# Source text: . Without being bound by any particular theory, it is believed BisEDT's low solubility provides slow dissolution and long exposure on lung surface fluids with limited systemic exposure via diffusion through lung epithelium. The lung appears to act as a depot for slow systemic exposure with about 10× lower systemic levels than seen in the lung. The terminal phase of the IV data appears to show slow elimination after initial tissue distribution (FIG. 36).
# . The NOAEL was established through clinical observation during and after treatment, gross necropsy, lung lavage analysis, clinical chemistry, and hematology results. […].
# Pseudomonas aeruginosa = format: in vivo, Sprague Dawley rats; conditions: rats, single dose of BisEDT, by Day 5
# Description: The efficacy of BisEDT in reducing pulmonary bacterial burden associated with pulmonary infection in a rat model of pulmonary Pseudomonas aeruginosa infection was evaluated. The results follow.
# Conclusion: Animals were divided into four experiment inhalational treatment groups: 1) Group 1, a negative control group treated with saline on Days 0, 2, and 4; 2) Group 2, a positive control group treated with tobramycin (target of 20 mg/kg, BID, Days 1-4); 3) Group 3, BisEDT (target of 0.1 mg/kg, QD, Days 0, 2, 4); and Group 4, BisEDT (target of 0.25 mg/kg, once, Day −1). Animals were further divided into two cohorts, separated by one day, to accommodate the challenge and treatment of the number of animals. All animals were exposed per protocol except Group 1 and 3, cohort 2. These animals were exposed on Days 0, 1, and 4 instead of on Days 0, 2, 4.
# An in vivo efficacy study was designed to assess the efficacy of inhaled BisEDT in a chronic model of P. aeruginosa pulmonary infection. […] Animals were euthanized at Study Day 3 and 5 and assessed for level of pulmonary bacterial burden. […]
# in vivo [2] = experiment: in vivo; design: species or system beagle dogs; conditions: dog; for half-life: two-dose inhalation
# Description: Once adequately conditioned to the restraint device and face-masks, the animals are individually exposed to the test article aerosols. Animals receive a single face-mask inhalation exposure in a ramp study design to test article aerosols for up to 60 min. Animal observations during and post exposure determine the tolerance of inhaled BisEDT aerosols.
# Blood Collections and Bioanalytical Analysis: Blood are collected for pharmacokinetic (PK) analysis prior to exposure, then at 4 hr (±5 min) post exposure, and again on Day 1, Day 2, Day 7 (pre- and 4 hr (±5 min)-post exposure), Day 8, Day 9, Day 10, Day 11, Day 12, Day 13, and Day 14. A total of 0.25 mL is collected at each timepoint. No PK blood is collected from the vehicle control (Group 1) animals; only animals exposed to BisEDT have blood collected for PK analysis. Collected samples are flash frozen without processing for shipment to Medpace for bioanalytical analysis. Additional blood is collected from all animals in all groups for hematology (1 mL) and clinical chemistry (1 mL) at baseline, Day 7 (pre-exposure), and again at euthanasia. Blood (2-2 mL) is collected from all animals at necropsy for coagulation analysis (d-Dimer, fibrinogen, PT, and PTT).
# Blood for pharmacokinetic analysis (0.25 mL) is collected into tubes containing K3EDTA as an anticoagulant.
# The left lobe of the lung is used for histopathology and will be fixed in 10% NBF. […] Liver, spleen, kidney, brain, heart, and respiratory tract are collected and fixed for potential, future analysis.
# A two-dose inhalation PK study in dogs was performed covering four doses from 50 μg/kg to 450 μg/kg lung deposited dose. […] The systemic half-life is approximately 4 days, and the lung tissue half-life is approximately 7 days.
# [3] = system: Burkholderia cepacia complex; experiment: Checkerboard FIC/FICI assay; format: cell-based, Burkholderia spp.; conditions: during FIC testing
# [4] = system: P. aeruginosa and A. baumannii; conditions: P. aeruginosa (MMX 103), QC; cited from earlier work
# [5] = rat, 24 hours after single inhalation dose
# [6] = rat, 4 days (96 hrs) after single dose
# [7] = Animals 4001 and 4004, Day 14 (7 days after last dose)
structure (smiles),measurement,setting,value
"C1C[S][Bi]([S]CC[S][Bi]2[S]CC[S]2)[S]1 [BisEDT, Bismuth-1,2-ethanedithiol]",half-life,"in vivo [1]; 100 μg/kg, rat, after IV dosing, read-out: half-life of lung levels (converted)",~24 h
same,half-life,"in vivo [1]; inhaled or intranasal, 100 μg/kg, rat, after inhalation dosing, read-out: half-life in lung tissue (converted)",~96 h
same,concentration at 24 hours,"in vivo [1]; average rat, correlated from lung tissue level, read-out: concentration in lung epithelial lining fluid",150 to 175 µg/mL
same,half-life,"in vivo [1]; rat, longer-term single-dose and repeat-dose studies, read-out: half-life in lung tissue (converted)",96 to 168 h
same,lung surface fluid concentrations higher than total lung tissue concentrations,in vivo [1]; rat,approximately 30 fold
same,tolerability,"in vivo [1]; rat, 100 μg/kg inhalation and IV and 250 μg/kg oral",tolerated
same,equivalent concentration in lung fluid,in vivo [1]; [5],123 µg/mL
same,lung tissue concentration,in vivo [1]; [5],"4,093 ng/g"
same,equivalent concentration in lung fluid,in vivo [1]; [6],78 µg/mL
same,lung tissue concentration,in vivo [1]; [6],"2,600 ng/g"
same,lung levels after IV dosing vs inhalation group,"in vivo [1]; rat, IV",< 5%
same,Kp,"in vivo [1]; rat, rat, repeat dose TK, read-out: lung tissue exposure (AUC) greater than blood exposure",26
same,Kp,"in vivo [1]; rat, rat, read-out: lung fluid exposure (AUC) greater than systemic exposure",> 700
same,concentration at 24 hours,"in vivo [1]; rat, rats, doses near the NOAEL, 24 hours after dosing, read-out: lung tissue level (total wet lung tissue)",~5000 ng/g
same,efficacy vs tobramycin positive control group,Pseudomonas aeruginosa,not significantly different
same,half-life,"in vivo [2]; beagle, in vivo, inhaled or intranasal, read-out: lung tissue half-life (converted)",~168 h
same,half-life,"in vivo [2]; beagle, in vivo, inhaled or intranasal, read-out: systemic half-life (converted)",~96 h
same,Tmax,"in vivo [2]; beagle, in vivo, inhaled or intranasal, whole blood, after both doses",~24 h
same,average blood level,in vivo [2]; [7],less than 20 ng/mL
same,lung tissue level,in vivo [2]; [7],"over 7,000 ng/g"
C[C@@H](O)[C@H]1C(=O)N2C(C(=O)O)=C(S[C@@H]3CN[C@H](C(=O)N(C)C)C3)[C@H](C)[C@H]12 [MEM],MIC,[3]; B. cenocepacia isolate 0548,4 µg/mL
same,MIC,[3]; B. cenocepacia isolate 0813,9 µg/mL
same,MIC,[3]; B. cepacia isolate 0546,4 µg/mL
same,MIC,[3]; B. cepacia isolate 1793,4 µg/mL
same,MIC,[3]; B. multivorans isolate 1795,4 µg/mL
same,CLSI Quality Control Range (MIC),[4],(0.25-1)
